According to patent publication US20240360113A1, “AMINOARYL-INTEGRIN AGONISTS COMPOUNDS” (Texas Heart Institute, priority 2021, published 2024):

Assays:
αLβ2/ICAM-1 = target: T1, αLβ2/ICAM-1 (Homo sapiens, UniProt P05107+P20701); assay: Static cell adhesion assay, HSB cells on ICAM-1 (LFA-1; LAD); format: cell-based; settings: RFU of compound / RFU of THI0349, both at the same concentration
T1 construct: The Jurkat (VCAM-1 assays) and HSB (ICAM-1 assays) cell lines were obtained from American Type Culture Collection; endogenous in cells; host or cells: HSB (ATCC)
Description: For in vitro cell adhesion assays, compounds were dissolved in DMSO to make a series of stock solutions such that a 1:100 dilution in assay buffer would yield the desired final working concentrations in 1% DMSO (vehicle). Human VCAM-1 and ICAM-1 were purchased from R&D Systems (Minneapolis, MN). The Jurkat (VCAM-1 assays) and HSB (ICAM-1 assays) cell lines were obtained from American Type Culture Collection (Manassas, VA) and were maintained in recommended culture media.
Assays were performed as previously described in Vanderslice et al., (2010), Biochem Biophys Res Commun 400, 619-624; and Vanderslice et al., (2013) J Biol Chem 288, 19414-19428. VCAM-1 or ICAM-1 ligand in 50 μL of 50 mM Tris-HCl (pH 7.4), 150 mM NaCl, (TBS) was added to wells of a 96-well plate and allowed to coat overnight at 4° C. To maximize the window to evaluate agonist activity, a sub-optimal coating concentration of ligand was used, typically 0.5 and 5 μg/mL in 50 μL TBS for VCAM-1 and ICAM-1 respectively. This ligand concentration corresponded approximately to that which would yield <5% adhesion as determined by dose-response curves. Briefly, 2×10^6 cells were labeled for 30 minutes with calcein-AM (Molecular Probes), washed, resuspended in binding buffer, and added to triplicate wells of ligand-coated plates (2×10^5 cells/well) that had been blocked with 2% BSA. After a 30-minute incubation at 37° C., the plates were washed 3 times with binding buffer, the adherent cells were lysed, and fluorescence was measured on a Tecan Safire^2 plate reader. The binding buffer was PBS with 1 mM MgCl2, 50% FBS for α4β1/VCAM-1 assays and PBS with 2 mM MgCl2, 5 mM EGTA, 50% FBS for αLβ2/ICAM-1 assays. EC50 is defined as the concentration of compound required to achieve 50% of the maximal response.
In relation to LAD (Leukocyte Adhesion Deficiency), LFA-1 ratios are determined by dividing the relative fluorescence units (RFU) of each compound at a concentration of 3 μM over that of the reference standard of THI0349, also at 3 μM, (RFU Compound/RFU of THI0349). Log Ps were calculated by either Chemdraw® version 12 (CambridgeSoft) or ACD/Chemsketch® (ACD/Labs).

α4β1/VCAM-1 = target: T2, α4β1/VCAM-1 (Homo sapiens, UniProt P05556+P13612); assay: Static cell adhesion assay, Jurkat cells on VCAM-1 (VLA-4 agonist activity); format: cell-based; settings: EC50 relative to THI0349 (average 11 uM) run on the same plate; Jurkat cells, 50% FBS
T2 construct: The Jurkat (VCAM-1 assays) and HSB (ICAM-1 assays) cell lines were obtained from American Type Culture Collection; endogenous in cells; host or cells: Jurkat (ATCC)
Outline: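 Calcein-labelled Jurkat cells (2×10^5/well) were added to wells coated with a sub-optimal level of human VCAM-1 (0.5 μg/mL) in PBS, 1 mM MgCl2, 50% FBS with compound in 1% DMSO. After 30 min at 37° C. and washing, adherent-cell fluorescence was read. EC50 was the concentration giving 50% of maximal response.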

T2 sequence (P13612 34-1032): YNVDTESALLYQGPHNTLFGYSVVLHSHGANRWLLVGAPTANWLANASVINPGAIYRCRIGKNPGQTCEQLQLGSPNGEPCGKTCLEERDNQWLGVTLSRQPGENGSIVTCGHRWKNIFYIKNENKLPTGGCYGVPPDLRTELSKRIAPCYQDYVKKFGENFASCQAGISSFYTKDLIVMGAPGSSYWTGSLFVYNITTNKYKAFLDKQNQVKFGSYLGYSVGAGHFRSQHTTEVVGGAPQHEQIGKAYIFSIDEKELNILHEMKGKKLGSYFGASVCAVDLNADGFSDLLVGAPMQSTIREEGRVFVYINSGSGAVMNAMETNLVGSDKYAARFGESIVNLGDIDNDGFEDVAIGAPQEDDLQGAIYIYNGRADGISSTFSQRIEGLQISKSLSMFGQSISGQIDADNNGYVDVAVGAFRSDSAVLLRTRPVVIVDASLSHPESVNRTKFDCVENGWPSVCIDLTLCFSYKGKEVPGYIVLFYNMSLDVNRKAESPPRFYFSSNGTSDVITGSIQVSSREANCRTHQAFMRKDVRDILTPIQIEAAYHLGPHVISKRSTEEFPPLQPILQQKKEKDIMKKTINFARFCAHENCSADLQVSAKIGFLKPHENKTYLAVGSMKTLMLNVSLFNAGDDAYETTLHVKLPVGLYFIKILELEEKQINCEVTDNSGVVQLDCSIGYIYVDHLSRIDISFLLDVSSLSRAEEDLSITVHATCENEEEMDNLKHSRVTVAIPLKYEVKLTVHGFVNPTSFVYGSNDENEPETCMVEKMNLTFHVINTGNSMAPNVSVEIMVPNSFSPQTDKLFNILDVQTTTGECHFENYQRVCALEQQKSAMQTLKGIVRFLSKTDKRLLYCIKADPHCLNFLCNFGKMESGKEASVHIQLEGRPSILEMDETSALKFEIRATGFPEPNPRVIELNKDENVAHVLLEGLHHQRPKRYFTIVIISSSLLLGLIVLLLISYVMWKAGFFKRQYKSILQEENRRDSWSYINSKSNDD
T2 sequence (P05556 21-798): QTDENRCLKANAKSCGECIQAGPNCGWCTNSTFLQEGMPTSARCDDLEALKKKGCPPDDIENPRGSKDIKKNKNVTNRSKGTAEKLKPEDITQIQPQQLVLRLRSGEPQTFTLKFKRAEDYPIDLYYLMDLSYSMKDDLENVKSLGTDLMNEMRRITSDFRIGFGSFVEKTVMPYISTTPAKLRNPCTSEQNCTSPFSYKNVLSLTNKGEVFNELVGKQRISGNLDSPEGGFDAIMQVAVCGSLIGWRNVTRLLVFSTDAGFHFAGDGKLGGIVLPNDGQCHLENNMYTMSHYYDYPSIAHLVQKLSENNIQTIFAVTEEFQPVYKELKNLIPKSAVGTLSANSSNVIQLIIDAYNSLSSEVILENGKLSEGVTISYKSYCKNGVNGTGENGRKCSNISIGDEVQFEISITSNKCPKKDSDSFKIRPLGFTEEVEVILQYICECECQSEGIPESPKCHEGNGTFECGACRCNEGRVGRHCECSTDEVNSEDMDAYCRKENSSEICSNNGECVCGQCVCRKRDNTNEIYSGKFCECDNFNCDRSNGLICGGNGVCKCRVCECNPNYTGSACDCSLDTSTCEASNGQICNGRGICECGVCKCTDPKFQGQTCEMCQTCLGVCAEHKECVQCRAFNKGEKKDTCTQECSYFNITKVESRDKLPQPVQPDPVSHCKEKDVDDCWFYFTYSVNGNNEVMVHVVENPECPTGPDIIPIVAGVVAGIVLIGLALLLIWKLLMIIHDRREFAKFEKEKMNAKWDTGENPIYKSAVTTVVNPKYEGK
T1 sequence (P20701 26-1170): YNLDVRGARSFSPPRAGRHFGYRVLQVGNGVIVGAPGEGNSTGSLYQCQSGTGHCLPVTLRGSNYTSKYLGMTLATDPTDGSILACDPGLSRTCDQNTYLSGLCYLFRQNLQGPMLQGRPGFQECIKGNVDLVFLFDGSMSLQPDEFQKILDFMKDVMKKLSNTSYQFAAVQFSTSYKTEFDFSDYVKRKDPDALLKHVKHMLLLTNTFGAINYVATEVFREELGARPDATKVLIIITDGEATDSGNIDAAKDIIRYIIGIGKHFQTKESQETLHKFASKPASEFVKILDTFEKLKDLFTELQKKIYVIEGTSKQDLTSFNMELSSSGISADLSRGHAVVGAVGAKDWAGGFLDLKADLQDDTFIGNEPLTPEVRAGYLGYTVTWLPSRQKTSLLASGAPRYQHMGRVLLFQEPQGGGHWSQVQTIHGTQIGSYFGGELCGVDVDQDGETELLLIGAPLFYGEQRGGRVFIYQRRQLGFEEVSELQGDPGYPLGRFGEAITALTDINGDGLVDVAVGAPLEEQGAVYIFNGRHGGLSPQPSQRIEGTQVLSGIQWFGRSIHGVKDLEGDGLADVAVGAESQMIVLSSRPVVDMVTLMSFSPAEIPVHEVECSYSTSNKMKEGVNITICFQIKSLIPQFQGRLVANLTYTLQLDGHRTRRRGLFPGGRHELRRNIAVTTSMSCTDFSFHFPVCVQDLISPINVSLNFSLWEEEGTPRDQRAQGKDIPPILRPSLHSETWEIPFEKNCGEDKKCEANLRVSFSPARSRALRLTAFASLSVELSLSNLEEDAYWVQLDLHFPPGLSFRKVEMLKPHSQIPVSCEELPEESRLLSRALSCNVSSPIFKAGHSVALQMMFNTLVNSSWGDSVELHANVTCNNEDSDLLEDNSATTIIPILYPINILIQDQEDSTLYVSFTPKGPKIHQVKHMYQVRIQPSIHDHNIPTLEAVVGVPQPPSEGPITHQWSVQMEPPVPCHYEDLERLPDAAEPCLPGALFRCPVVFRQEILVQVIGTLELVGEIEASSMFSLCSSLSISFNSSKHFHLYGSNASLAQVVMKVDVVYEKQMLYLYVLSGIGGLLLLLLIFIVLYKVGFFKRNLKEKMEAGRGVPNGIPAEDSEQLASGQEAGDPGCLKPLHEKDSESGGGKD
T1 sequence (P05107 23-769): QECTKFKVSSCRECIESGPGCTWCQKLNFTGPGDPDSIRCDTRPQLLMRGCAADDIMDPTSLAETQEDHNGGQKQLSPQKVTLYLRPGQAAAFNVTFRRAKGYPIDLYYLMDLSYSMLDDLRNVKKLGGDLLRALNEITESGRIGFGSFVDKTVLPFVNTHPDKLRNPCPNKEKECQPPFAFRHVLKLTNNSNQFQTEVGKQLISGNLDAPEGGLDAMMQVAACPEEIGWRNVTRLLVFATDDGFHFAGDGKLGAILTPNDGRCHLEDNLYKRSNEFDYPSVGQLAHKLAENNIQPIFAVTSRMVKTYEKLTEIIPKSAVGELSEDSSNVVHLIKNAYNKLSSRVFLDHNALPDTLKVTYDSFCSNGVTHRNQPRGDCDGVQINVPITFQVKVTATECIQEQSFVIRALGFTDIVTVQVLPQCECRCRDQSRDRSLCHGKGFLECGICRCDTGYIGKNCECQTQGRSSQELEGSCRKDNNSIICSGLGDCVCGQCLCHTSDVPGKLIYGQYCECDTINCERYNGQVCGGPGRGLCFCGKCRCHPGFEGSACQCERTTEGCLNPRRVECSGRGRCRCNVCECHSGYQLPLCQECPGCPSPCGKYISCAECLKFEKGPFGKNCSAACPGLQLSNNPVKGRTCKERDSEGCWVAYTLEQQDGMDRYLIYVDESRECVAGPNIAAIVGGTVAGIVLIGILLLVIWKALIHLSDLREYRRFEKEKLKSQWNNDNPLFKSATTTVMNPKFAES

With `COc1cccc(CN(Cc2cccc(OC)c2)c2nc(CN3CCOCC3)co2)c1` [Compound 81, N,N-bis(3-methoxybenzyl)-4-(morpholinomethyl)oxazol-2-amine] the “LAD Raw Fluorescence Units against LFA-1; Dose 3 µM; Ratio of raw counts Compound/THI0349” value (αLβ2/ICAM-1) was 0.36 and the “Group against VCAM” value (α4β1/VCAM-1) was “II (Group II is more than twice that of THI0349 but less than five times THI0349's EC50)”.

With `COc1cccc(CN(Cc2cccc(OC)c2)c2nc(COCCOCc3ccccc3Cl)cs2)c1` [Compound 59, 4-((2-((2-chlorobenzyl)oxy)ethoxy)methyl)-N,N-bis(3-methoxybenzyl)thiazol-2-amine] the “LAD Raw Fluorescence Units against LFA-1; Dose 3 µM; Ratio of raw counts Compound/THI0349” value (αLβ2/ICAM-1) was 1.0 and the “Group against VCAM” value (α4β1/VCAM-1) was “II (Group II is more than twice that of THI0349 but less than five times THI0349's EC50)”.

With `COc1cccc(CN(Cc2cccc(N(C)C)c2)c2nc(CN3CCOCC3)cs2)c1` [Compound 73, N-(3-(dimethylamino)benzyl)-N-(3-methoxybenzyl)-4-(morpholinomethyl)thiazol-2-amine] the “LAD Raw Fluorescence Units against LFA-1; Dose 3 µM; Ratio of raw counts Compound/THI0349” value (αLβ2/ICAM-1) was 0.12 and the “Group against VCAM” value (α4β1/VCAM-1) was “II (Group II is more than twice that of THI0349 but less than five times THI0349's EC50)”.

In the case of `CCOC(=O)c1ccc(N(Cc2cccc(OC)c2)Cc2cccc(OC)c2)nc1` [Compound 95, ethyl 6-(bis(3-methoxybenzyl)amino)nicotinate], the “LAD Raw Fluorescence Units against LFA-1; Dose 3 µM; Ratio of raw counts Compound/THI0349” value (αLβ2/ICAM-1) is reported as 0.09 and the “Group against VCAM” value (α4β1/VCAM-1) is reported as “III (Group III more than five times the EC50 of THI0349)”.

In the case of `COc1cccc(COc2cccc(N(Cc3cccc(OC)c3)Cc3cccc(OC)c3)c2)c1` [Compound 92, N,N-bis(3-methoxybenzyl)-3-((3-methoxybenzyl)oxy)aniline], the “LAD Raw Fluorescence Units against LFA-1; Dose 3 µM; Ratio of raw counts Compound/THI0349” value (αLβ2/ICAM-1) is reported as 0.6 and the “Group against VCAM” value (α4β1/VCAM-1) is reported as “III (Group III more than five times the EC50 of THI0349)”.

In the case of `CCOC(=O)c1coc(N(Cc2ccc(OC)cc2)Cc2ccc(OC)cc2)n1` [Compound 15, ethyl 2-(bis(4-methoxybenzyl)amino)oxazole-4-carboxylate], the “LAD Raw Fluorescence Units against LFA-1; Dose 3 µM; Ratio of raw counts Compound/THI0349” value (αLβ2/ICAM-1) is reported as 0.52 and the “Group against VCAM” value (α4β1/VCAM-1) is reported as “III (Group III more than five times the EC50 of THI0349)”.

In the case of `COc1cccc(COc2ccc(N(Cc3cccc(OC)c3)Cc3cccc(OC)c3)cc2)c1` [Compound 91, N,N-bis(3-methoxybenzyl)-4-((3-methoxybenzyl)oxy)aniline], the “LAD Raw Fluorescence Units against LFA-1; Dose 3 µM; Ratio of raw counts Compound/THI0349” value (αLβ2/ICAM-1) is reported as 0.09 and the “Group against VCAM” value (α4β1/VCAM-1) is reported as “III (Group III more than five times the EC50 of THI0349)”.

In the case of `COc1cccc(CN(Cc2cccc(OC)c2)c2nc(COCCN3CCOCC3)cs2)c1` [Compound 64, N,N-bis(3-methoxybenzyl)-4-((2-morpholinoethoxy)methyl)thiazol-2-amine], the “LAD Raw Fluorescence Units against LFA-1; Dose 3 µM; Ratio of raw counts Compound/THI0349” value (αLβ2/ICAM-1) is reported as 0.31 and the “Group against VCAM” value (α4β1/VCAM-1) is reported as “I (Group I maintains at least the same potency or better up to more than twice that of the EC50 of THI0349 ran on the same plate)”.

`COc1cccc(CN(Cc2cccc(OC)c2)c2nc(COCCOc3ccc(Cl)cc3)cs2)c1` [Compound 49, 4-((2-(4-chlorophenoxy)ethoxy)methyl)-N,N-bis(3-methoxybenzyl)thiazol-2-amine] was tested, and the “LAD Raw Fluorescence Units against LFA-1; Dose 3 µM; Ratio of raw counts Compound/THI0349” value (αLβ2/ICAM-1) was 0.63 and the “Group against VCAM” value (α4β1/VCAM-1) was “II (Group II is more than twice that of THI0349 but less than five times THI0349's EC50)”.

`COc1cccc(CN(Cc2cccc(OC)c2)c2nc(COCCOCCOc3cccc(N(C)C)c3)cs2)c1` [Compound 41, 4-((2-(2-(3-(dimethylamino)phenoxy)ethoxy)ethoxy)methyl)-N,N-bis(3-methoxybenzyl)thiazol-2-amine] was tested, and the “LAD Raw Fluorescence Units against LFA-1; Dose 3 µM; Ratio of raw counts Compound/THI0349” value (αLβ2/ICAM-1) was 1.3 and the “Group against VCAM” value (α4β1/VCAM-1) was “I (Group I maintains at least the same potency or better up to more than twice that of the EC50 of THI0349 ran on the same plate)”.

`CCOC(=O)c1coc(N(Cc2cccs2)Cc2cccs2)n1` [Compound 13, ethyl 2-(bis(thiophen-2-ylmethyl)amino)oxazole-4-carboxylate] was tested, and the “LAD Raw Fluorescence Units against LFA-1; Dose 3 µM; Ratio of raw counts Compound/THI0349” value (αLβ2/ICAM-1) was 0.1 and the “Group against VCAM” value (α4β1/VCAM-1) was “I (Group I maintains at least the same potency or better up to more than twice that of the EC50 of THI0349 ran on the same plate)”.

`COc1cccc(CN(C)c2nc(CN3CCOCC3)cs2)c1` [Compound 111, N-(3-methoxybenzyl)-N-methyl-4-(morpholinomethyl)thiazol-2-amine] was tested, and the “LAD Raw Fluorescence Units against LFA-1; Dose 3 µM; Ratio of raw counts Compound/THI0349” value (αLβ2/ICAM-1) was 0.06 and the “Group against VCAM” value (α4β1/VCAM-1) was “III (Group III more than five times the EC50 of THI0349)”.

For `COc1cccc(CN(Cc2cccc(OC)c2)c2nc(COCCOCCOCc3ccccc3Cl)cs2)c1` [Compound 56, 4-((2-(2-((2-chlorobenzyl)oxy)ethoxy)ethoxy)methyl)-N,N-bis(3-methoxybenzyl)thiazol-2-amine], the “LAD Raw Fluorescence Units against LFA-1; Dose 3 µM; Ratio of raw counts Compound/THI0349” value (αLβ2/ICAM-1) was 1.2 and the “Group against VCAM” value (α4β1/VCAM-1) was “III (Group III more than five times the EC50 of THI0349)”.

With `COc1cccc(CN(Cc2cccc(OC)c2)c2nc(COCCOc3ccccc3)cs2)c1` [Compound 52, N,N-bis(3-methoxybenzyl)-4-((2-phenoxyethoxy)methyl)thiazol-2-amine] the “LAD Raw Fluorescence Units against LFA-1; Dose 3 µM; Ratio of raw counts Compound/THI0349” value (αLβ2/ICAM-1) was 1.2 and the “Group against VCAM” value (α4β1/VCAM-1) was “II (Group II is more than twice that of THI0349 but less than five times THI0349's EC50)”.

`COc1cccc(CN(Cc2cccc(OC)c2)c2nc(CN3CCOCC3)cs2)c1` [Compound 67, N,N-bis(3-methoxybenzyl)-4-(morpholinomethyl)thiazol-2-amine] was tested, and the “LAD Raw Fluorescence Units against LFA-1; Dose 3 µM; Ratio of raw counts Compound/THI0349” value (αLβ2/ICAM-1) was 1.2 and the “Group against VCAM” value (α4β1/VCAM-1) was “I (Group I maintains at least the same potency or better up to more than twice that of the EC50 of THI0349 ran on the same plate)”.

With `COc1cccc(CN(Cc2cccc(OC)c2)c2nc(COCCN3CCc4ccccc43)cs2)c1` [Compound 88, 4-((2-(indolin-1-yl)ethoxy)methyl)-N,N-bis(3-methoxybenzyl)thiazol-2-amine] the “LAD Raw Fluorescence Units against LFA-1; Dose 3 µM; Ratio of raw counts Compound/THI0349” value (αLβ2/ICAM-1) was 0.18 and the “Group against VCAM” value (α4β1/VCAM-1) was “II (Group II is more than twice that of THI0349 but less than five times THI0349's EC50)”.

In the case of `COc1cccc(CN(Cc2cccc(OC)c2)c2nc(COCCOc3ccc(N(C)C)cc3)cs2)c1` [Compound 51, 4-((2-(4-(dimethylamino)phenoxy)ethoxy)methyl)-N,N-bis(3-methoxybenzyl)thiazol-2-amine], the “LAD Raw Fluorescence Units against LFA-1; Dose 3 µM; Ratio of raw counts Compound/THI0349” value (αLβ2/ICAM-1) is reported as 1.3 and the “Group against VCAM” value (α4β1/VCAM-1) is reported as “III (Group III more than five times the EC50 of THI0349)”.

In the case of `CCOC(=O)c1coc(N(Cc2cccc(OCCOC)c2)Cc2cccc(OCCOC)c2)n1` [Compound 16, ethyl 2-(bis(3-(2-methoxyethoxy)benzyl)amino)oxazole-4-carboxylate], the “LAD Raw Fluorescence Units against LFA-1; Dose 3 µM; Ratio of raw counts Compound/THI0349” value (αLβ2/ICAM-1) is reported as 0.49 and the “Group against VCAM” value (α4β1/VCAM-1) is reported as “II (Group II is more than twice that of THI0349 but less than five times THI0349's EC50)”.

In the case of `COc1cccc(CN(Cc2cccc(OC)c2)c2nc(C)cs2)c1` [Compound 29, N,N-bis(3-methoxybenzyl)-4-methylthiazol-2-amine], the “LAD Raw Fluorescence Units against LFA-1; Dose 3 µM; Ratio of raw counts Compound/THI0349” value (αLβ2/ICAM-1) is reported as 0.88 and the “Group against VCAM” value (α4β1/VCAM-1) is reported as “III (Group III more than five times the EC50 of THI0349)”.

With `CCOC(=O)c1csc(N(Cc2cccc(OC)c2)Cc2cccc(-n3ccnc3)c2)n1` [Compound 118, ethyl 2-((3-(1H-imidazol-1-yl)benzyl)(3-methoxybenzyl)amino)thiazole-4-carboxylate] the “LAD Raw Fluorescence Units against LFA-1; Dose 3 µM; Ratio of raw counts Compound/THI0349” value (αLβ2/ICAM-1) was 0.15 and the “Group against VCAM” value (α4β1/VCAM-1) was “II (Group II is more than twice that of THI0349 but less than five times THI0349's EC50)”.

For `COc1cccc(CNC(=O)c2coc(N(Cc3cccc(OC)c3)Cc3cccc(OC)c3)n2)c1` [Compound 18, 2-(bis(3-methoxybenzyl)amino)-N-(3-methoxybenzyl)oxazole-4-carboxamide], the “LAD Raw Fluorescence Units against LFA-1; Dose 3 µM; Ratio of raw counts Compound/THI0349” value (αLβ2/ICAM-1) was 0.17 and the “Group against VCAM” value (α4β1/VCAM-1) was “II (Group II is more than twice that of THI0349 but less than five times THI0349's EC50)”.
